Results reported in patent US20250353831A1, “NOVEL HETEROBICYCLIC COMPOUND FOR INHIBITING YAP-TEAD INTERACTION AND PHARMACEUTICAL COMPOSITION COMPRISING SAME” (priority 2022, published 2025).

What was measured:
NCI-H226 cells = assay: Cell growth inhibition test (SRB) in NCI-H226 cells; format: cell-based; details: Homo sapiens, 144 h, NCI-H226 NF2 gene-deficient mesothelioma cancer cell line, 6 days
Description: The ability of the synthetic compounds to inhibit the growth of NCI-H226 cells was identified. NCI-H226, which is an NF2 gene-deficient mesothelioma cancer cell line, was cultured in a RPMI 1640 medium supplemented with 10% FBS and 1% Penicillin/Streptomycin. The cultured cells were aliquoted into a 96-well plate at a density of 0.7×10^3 cells/100 μl and cultured for 24 hours, and then 100 μl of a test compound diluted to 2× concentration was mixed with each well and cultured for 6 days. SRB test method was used to measure cell growth inhibition, and a 50% inhibitory concentration (GI50) on cell growth by the compound was calculated by using GraphPad Prism 9.
A GI50value less than 100 nM was expressed as A and a GI50 value not less than 100 nM was expressed as B.

TEAD = TEAD reporter activity inhibition test (luciferase reporter in MCF7 cell line); format: cell-based; details: Homo sapiens; MCF7 TEAD (GTIIC) firefly luciferase reporter cell line, 24 hours, ONE-Glo luminescence; read-out: IC50 on TEAD transcription activity
Description: The ability of the synthetic compounds to inhibit transcription of a target gene by TEAD was measured. This evaluation method was a method of measuring transcriptional activity of TEAD by measuring luminescence intensity of luciferase expressed in the case where TEAD binds to a target gene and activates transcription thereof, by using MCF7 cell line (BPS Bioscienc, Inc., USA) constructed by introducing firefly luciferase reporter gene into GTIIC (5′-ACATTCCA-3′), which is a specific binding structure of TEAD. The cell line was cultured in a MEM medium supplemented with 10% FBS, 1% Penicillin/Streptomycin, 1% non-essential amino acids, 10 μg/ml insulin, and 400 μg/ml Geneticin. In the test of inhibiting the TEAD reporter activity, Geneticin was excluded. The cells were aliquoted into a white 96-well plate at a density of 4×10^4 cells/100 μl and cultured for 6 hours. 50 μl of the test compound diluted to 3× concentration was mixed with each well. After culturing the cell line for 24 hours, signals of luciferase were measured by luminescence according to manufacturer's protocols by using ONE-Glo luciferase assay system (Promega, E6120). A 50% inhibitory concentration (IC50) on TEAD transcription activity was calculated by using GraphPad Prism 9.
An IC50 value less than 100 nM was expressed as A, an IC50 value not less than 100 nM but less than 500 nM was expressed as B, and an IC50 value not less than 500 nM was expressed as C.

GI50 (NCI-H226 cells)	IC50 (TEAD)	SMILES
< 100 nM	< 100 nM	C=CC(=O)Nc1ccc2c(c1)c(-c1ccccc1F)cn2-c1ccc(C(F)(F)F)cc1 [Synthetic compound 5, N-(3-(2-fluorophenyl)-1-(4-(trifluoromethyl)phenyl)-1H-indol-5-yl)acrylamide]
< 100 nM	< 100 nM	C=CC(=O)Nc1ccc2c(c1)c(-c1cn(CCOC)cn1)cn2-c1ccc(C(F)(F)F)cc1 [Synthetic compound 7, N-(3-(1-(2-methoxyethyl)-1H-imidazol-4-yl)-1-(4-(trifluoromethyl)phenyl)-1H-indol-5-yl)acrylamide]
–	100 to 500 nM	C=C(F)C(=O)Nc1ccc2c(c1)c(-c1cn(C)cn1)cn2-c1ccc(C(F)(F)F)cc1 [Synthetic compound 6, 2-fluoro-N-(3-(1-methyl-1H-imidazol-4-yl)-1-(4-(trifluoromethyl)phenyl)-1H-indol-5-yl) acrylamide]
< 100 nM	< 100 nM	C=CC(=O)Nc1ccc2c(c1)c(-c1cn(C3CCC3)cn1)cn2-c1ccc(C(F)(F)F)cc1 [Synthetic compound 4, N-(3-(1-cyclobutyl-1H-imidazol-4-yl)-1-(4-(trifluoromethyl)phenyl)-1H-indol-5-yl)acrylamide]
< 100 nM	< 100 nM	C=CC(=O)Nc1ccc2c(c1)c(-c1cn(C3CC3)cn1)cn2-c1ccc(C(F)(F)F)cc1 [Synthetic compound 2, N-(3-(1-cyclopropyl-1H-imidazol-4-yl)-1-(4-(trifluoromethyl)phenyl)-1H-indol-5-yl) acrylamide]
< 100 nM	< 100 nM	C=CC(=O)Nc1ccc2c(c1)c(-c1cn(C)cn1)cn2-c1ccc(C(F)(F)F)cc1 [Synthetic compound 9, N-(3-(1-methyl-1H-imidazol-4-yl)-1-(4-(trifluoromethyl)phenyl)-1pyrrolo[2,3-b]pyridin-5-yl)acrylamide]
< 100 nM	< 100 nM	C=CC(=O)Nc1ccc2c(c1)c(-c1ccco1)cn2-c1ccc(C(F)(F)F)cc1 [Synthetic compound 3, N-(3-(furan-2-yl)-1-(4-(trifluoromethyl)phenyl)-1H-indol-5-yl)acrylamide]
–	100 to 500 nM	C=CC(=O)Nc1cc2c(-c3cn(C)cn3)cn(-c3ccc(C(F)(F)F)cc3)c2cc1Cl [Synthetic compound 10, N-(6-chloro-3-(1-methyl-1H-imidazol-4-yl)-1-(4-(trifluoromethyl)phenyl)-1H-indol-5-yl)acrylamide]
< 100 nM	< 100 nM	C=CC(=O)Nc1cnc2c(c1)c(-c1cn(C3CC3)cn1)cn2-c1ccc(C(F)(F)F)cc1 [Synthetic compound 8, N-(3-(1-cyclopropyl-1H-imidazol-4-yl)-1-(4-(trifluoromethyl)phenyl)-1H-pyrrolo[2,3-b]pyridin-5-yl)acrylamide]
